The results in this text go back to patent publication US11147818B2, “Combination therapies” (Infinity Pharmaceuticals, Inc., priority 2016, dated 2021).

Assay in all cases: Combination study of Compound 1 with selinexor, ATPLite cell growth/viability, 9x9 dose matrix
Format in all cases: cell-based
What all share (conditions): Compound 1 in combination with Selinexor, 72 hours
On the technique in general: ATP-based viability assays read luminescence as a measure of living cells.

The subject of one assay is MJ (G11) cell line. The procedure: (§1) The synergistic effects of compounds provided herein and another therapeutic agent were carried out. The method is described as follows. Cells were thawed from a liquid nitrogen preserved state. Once cells were expanded and divided at their expected doubling times, screening began. Cells were seeded in growth media in either black 1536-well or 384-well tissue culture treated plates. Cells were then equilibrated in assay plates via centrifugation and placed in incubators attached to the Dosing Modules at 37° C. for 24 hours before treatment. […] These Tzero (To) plates were read using ultra-sensitive luminescence on Envision plate readers (Perkin Elmer). Treated assay plates were incubated with compound for 72 hours. After 72 hours, plates were developed for endpoint analysis using ATPLite. All data points were collected via automated processes, quality controlled and analyzed using Zalicus software. Assay plates were accepted if they passed the following quality control standards: relative luciferase values were consistent throughout the entire experiment, Z-factor scores were greater than 0.6, untreated/vehicle controls behaved consistently on the plate.
(§2) Inhibition (I) is defined as I=(1−T/V)*100% where T is treated cell count and V is untreated (vehicle) cell count (at 72 hours). I ranges from 0% (when T=V) to 100% (when T=0). The IC50 value is defined as the drug concentration needed to inhibit 50% of the cell growth compared to growth of the vehicle treated cells (the drug concentration which gives I=50%). The measure of effect in the experiment can be the inhibition of cellular response relative to the untreated level (vehicle alone). For untreated vehicle and treated levels V and T, a fractional inhibition I=1-T/V is calculated. The inhibition ranges from 0% at the untreated level to 100% when T=0. Inhibition levels are negative for agents that actually increase levels. Other effect measures, such as an activity ratio r=T/V may be more appropriate for some assays. When activity ratios (e.g., fold increase over stimulated control) are being used, the effect can be measured using an induction I=ln(T/V). With this definition, all effect expressions are the same as for inhibition.
(§3) Growth Inhibition (GI) is used as a measure of cell viability. The cell viability of vehicle is measured at the time of dosing (TO) and after 72 hours (T72). A GI reading of 0% represents no growth inhibition—T72 compound-treated and T72 vehicle signals are matched. A GI reading of 100% represents complete growth inhibition—T72 compound-treated and TO vehicle signals are matched. […] A GI reading of 200% represents complete death of all cells in the culture well. Compounds reaching an activity plateau of GI 200% are considered cytotoxic. GI is calculated by applying the following test and equation:
(§4) [formula] [formula] where T is the signal measure for a test article, V is the vehicle-treated control measure, and Vo is the vehicle control measure at time zero. This formula is derived from the Growth Inhibition calculation used in the National Cancer Institute's NCI-60 high-throughput screen.
(§5) Combination analysis data were collected in a 9×9 dose matrix. Synergy was calculated by comparing a combination's response to those of its single compound, against the drug-with-itself dose-additive reference model. Deviations from dose additivity may be assessed visually on an isobologram or numerically with a Combination Index (CI). See the tables below for CI at 50% inhibition and CI at 50% growth inhibition. Additive effect is CI=1.0. Synergistic effect is CI<1. Antagonistic effect is CI>1.0.
(§6) To measure combination effects in excess of Loewe additivity, a scalar measure to characterize the strength of synergistic interaction termed the Synergy Score was devised. […]

For another assay, the system named is HuT 78 cell line. The procedure: as §1, §2, §3, §4, §5, §6
The next assay has as its system HH cell line. The procedure:
as §1, §2, §3, §4, §5, §6

The subject of a further assay is HuT 102 cell line. Here is the method: as §1, §2, §3, §4, §5, §6
For the next assay, the system named is H9 cell line. The procedure:
as §1
as §2, with “The inhibition ranges from 0% at the untreated level to 100% when T=0. Inhibition levels are negative for agents that actually increase levels. Other effect measures, such as an activity ratio r=T/V may be more appropriate for some assays.” left out, “With this definition, all effect expressions are the same as for inhibition.” left out
Growth Inhibition (GI) is used as a measure of cell viability. The cell viability of vehicle is measured at the time of dosing (TO) and after 72 hours (T72). A GI reading of 0% represents no growth inhibition—T72 compound-treated and T72 vehicle signals are matched. A GI reading of 100% represents complete growth inhibition—T72 compound-treated and TO vehicle signals are matched. […] A GI reading of 200% represents complete death of all cells in the culture well. […] GI is calculated by applying the following test and equation: […]
Combination analysis data were collected in a 9×9 dose matrix. Synergy was calculated by comparing a combination's response to those of its single compound, against the drug-with-itself dose-additive reference model. Deviations from dose additivity may be assessed visually on an isobologram or numerically with a Combination Index (CI). […]

For the compound `O=C(/C=C\n1cnc(-c2cc(C(F)(F)F)cc(C(F)(F)F)c2)n1)NNc1cnccn1` [Selinexor, (Z)-3-(3-(3,5-bis(trifluoromethyl)phenyl)-1H-1,2,4-triazol-1-yl)—N′-(pyrazin-2-yl)acrylohydrazide], the CI50 growth inhibition entry with MJ (G11) cell line is on record as “A3 (A3=>3)”; in the assay on HuT 78 cell line it was “A3 (A3=>3)”; in the assay with HH cell line it was “A2 (A2=1 to <3)”; in the assay with H9 cell line, “A3 (A3=>3)”. For the same compound, the CI50 inhibition result in the assay on MJ (G11) cell line is recorded as “A2 (A2=1 to <3)”; with HuT 78 cell line, “A2 (A2=1 to <3)”; with HH cell line, “A2 (A2=1 to <3)”; in the assay on HuT 102 cell line it was “A1 (A1=0.0001 to <1)”; in the assay on H9 cell line, “A3 (A3=>3)”. Also, the “Synergy Score growth inhibition” value in the assay on MJ (G11) cell line is 4.50; with HuT 78 cell line it was 5.85; in the assay with HH cell line, 1.53; in the assay on H9 cell line it was 10.4. Besides, the “Synergy Score inhibition” value in the assay on MJ (G11) cell line is given as 1.50; in the assay with HuT 78 cell line, 1.94; with HH cell line, 1.25; with HuT 102 cell line, 0.82; in the assay with H9 cell line it was 3.23.
